Key:
[1] = human gut metagenome, 24 h, 2 µM
[2] = The drug is tested on WLS-038 corresponding to human gut metagenome with ENA study accession number: PRJEB37062 and ENA sample accession number: ERS12561745 for biotransformation under anaerobic condition. The drug concentrations were measured over 9 timepoints collected between 0 and 24 hours of incubation by liquid-chromatography-coupled mass spectrometry (LC–MS); conditions: 2 µM
[3] = human gut metagenome, 24 h, 2 µM; remark: listed apart in the source
[4] = The drug is tested on WLS-010 corresponding to human gut metagenome with ENA study accession number: PRJEB37062 and ENA sample accession number: ERS12561743 for biotransformation under anaerobic condition. The drug concentrations were measured over 9 timepoints collected between 0 and 24 hours of incubation by liquid-chromatography-coupled mass spectrometry (LC–MS); conditions: 2 µM
[5] = The drug is tested on WLS-039 corresponding to human gut metagenome with ENA study accession number: PRJEB37062 and ENA sample accession number: ERS12561746 for biotransformation under anaerobic condition. The drug concentrations were measured over 9 timepoints collected between 0 and 24 hours of incubation by liquid-chromatography-coupled mass spectrometry (LC–MS); conditions: 2 µM
[6] = The drug is tested on WLS-370 corresponding to human gut metagenome with ENA study accession number: PRJEB37062 and ENA sample accession number: ERS12561793 for biotransformation under anaerobic condition. The drug concentrations were measured over 9 timepoints collected between 0 and 24 hours of incubation by liquid-chromatography-coupled mass spectrometry (LC–MS); conditions: 2 µM
[7] = The drug is tested on Z-005 corresponding to metagenome with ENA study accession number: PRJEB37062 and ENA sample accession number: ERS12561805 for biotransformation under anaerobic condition. The drug concentrations were measured over 9 timepoints collected between 0 and 24 hours of incubation by liquid-chromatography-coupled mass spectrometry (LC–MS); conditions: 2 µM
[8] = The drug is tested on WLS-069 corresponding to human gut metagenome with ENA study accession number: PRJEB37062 and ENA sample accession number: ERS12561748 for biotransformation under anaerobic condition. The drug concentrations were measured over 9 timepoints collected between 0 and 24 hours of incubation by liquid-chromatography-coupled mass spectrometry (LC–MS); conditions: 2 µM
[9] = The drug is tested on Z-022 corresponding to mouse gut metagenome with ENA study accession number: PRJEB37062 and ENA sample accession number: ERS12561821 for biotransformation under anaerobic condition. The drug concentrations were measured over 9 timepoints collected between 0 and 24 hours of incubation by liquid-chromatography-coupled mass spectrometry (LC–MS); conditions: 2 µM
[10] = human gut metagenome, 24 h, 2 µM; remark: listed apart in the source
[11] = human gut metagenome, 24 h, 2 µM; remark: listed apart in the source
[12] = human gut metagenome, 24 h, 2 µM; remark: listed apart in the source
[13] = human gut metagenome, 24 h, 2 µM; remark: listed apart in the source
[14] = The drug is tested on WLS-310 corresponding to human gut metagenome with ENA study accession number: PRJEB37062 and ENA sample accession number: ERS12561785 for biotransformation under anaerobic condition. The drug concentrations were measured over 9 timepoints collected between 0 and 24 hours of incubation by liquid-chromatography-coupled mass spectrometry (LC–MS); conditions: 2 µM
[15] = human gut metagenome, 24 h, 2 µM; remark: listed apart in the source
[16] = human gut metagenome, 24 h, 2 µM; remark: listed apart in the source
[17] = The drug is tested on WLS-350 corresponding to human gut metagenome with ENA study accession number: PRJEB37062 and ENA sample accession number: ERS12561789 for biotransformation under anaerobic condition. The drug concentrations were measured over 9 timepoints collected between 0 and 24 hours of incubation by liquid-chromatography-coupled mass spectrometry (LC–MS); conditions: 2 µM
[18] = human gut metagenome, 24 h, 2 µM; remark: listed apart in the source
[19] = human gut metagenome, 24 h, 2 µM; remark: listed apart in the source
[20] = human gut metagenome, 24 h, 2 µM; remark: listed apart in the source
Further: call rule not given here.

SMILES	Bacterial Biotransformation [1]	Bacterial Biotransformation [2]	Bacterial Biotransformation [3]	Bacterial Biotransformation [4]	Bacterial Biotransformation [5]	Bacterial Biotransformation [6]	Bacterial Biotransformation [7]	Bacterial Biotransformation [8]	Bacterial Biotransformation [9]	Bacterial Biotransformation [10]	Bacterial Biotransformation [11]	Bacterial Biotransformation [12]	Bacterial Biotransformation [13]	Bacterial Biotransformation [14]	Bacterial Biotransformation [15]	Bacterial Biotransformation [16]	Bacterial Biotransformation [17]	Bacterial Biotransformation [18]	Bacterial Biotransformation [19]	Bacterial Biotransformation [20]
CC(C)OC(=O)C(C)(C)Oc1ccc(C(=O)c2ccc(Cl)cc2)cc1 [FENOFIBRATE]	Compound NOT metabolized	Compound NOT metabolized	Compound metabolized	Compound NOT metabolized	Compound NOT metabolized	Compound metabolized	Compound metabolized	Compound NOT metabolized	Compound NOT metabolized	Compound metabolized	Compound NOT metabolized	Compound NOT metabolized	Compound metabolized	Compound metabolized	Compound metabolized	Compound metabolized	Compound NOT metabolized	Compound metabolized	Compound metabolized	Compound metabolized
O=C1NCC2(CCN(CCc3ccccc3)CC2)O1 [FENSPIRIDE]	Compound NOT metabolized	Compound NOT metabolized	Compound NOT metabolized	Compound NOT metabolized	Compound NOT metabolized	Compound NOT metabolized	Compound NOT metabolized	Compound NOT metabolized	Compound metabolized	Compound NOT metabolized	Compound NOT metabolized	Compound NOT metabolized	Compound NOT metabolized	Compound NOT metabolized	Compound NOT metabolized	Compound NOT metabolized	Compound NOT metabolized	Compound NOT metabolized	Compound NOT metabolized	Compound NOT metabolized
OC(Cn1cncn1)(Cn1cncn1)c1ccc(F)cc1F [FLUCONAZOLE]	Compound metabolized	Compound NOT metabolized	Compound NOT metabolized	Compound NOT metabolized	Compound NOT metabolized	Compound NOT metabolized	Compound NOT metabolized	Compound metabolized	Compound metabolized	Compound NOT metabolized	Compound NOT metabolized	Compound NOT metabolized	Compound metabolized	Compound metabolized	Compound metabolized	Compound metabolized	Compound metabolized	Compound NOT metabolized	Compound NOT metabolized	Compound metabolized
CNCCC(Oc1ccc(C(F)(F)F)cc1)c1ccccc1 (stereo not given) [FLUOXETINE]	Compound NOT metabolized	Compound NOT metabolized	Compound NOT metabolized	Compound NOT metabolized	Compound NOT metabolized	Compound metabolized	Compound NOT metabolized	Compound NOT metabolized	Compound NOT metabolized	Compound NOT metabolized	Compound NOT metabolized	Compound NOT metabolized	Compound NOT metabolized	Compound NOT metabolized	Compound NOT metabolized	Compound metabolized	Compound NOT metabolized	Compound NOT metabolized	Compound NOT metabolized	Compound NOT metabolized
O=C(CCCN1CCC(O)(c2ccc(Cl)cc2)CC1)c1ccc(F)cc1 [HALOPERIDOL]	Compound NOT metabolized	Compound NOT metabolized	Compound NOT metabolized	Compound NOT metabolized	Compound metabolized	Compound NOT metabolized	Compound NOT metabolized	Compound metabolized	Compound NOT metabolized	Compound NOT metabolized	Compound NOT metabolized	Compound NOT metabolized	Compound metabolized	Compound metabolized	Compound metabolized	Compound metabolized	Compound NOT metabolized	Compound NOT metabolized	Compound NOT metabolized	Compound NOT metabolized
CCCCC1=NC2(CCCC2)C(=O)N1Cc1ccc(-c2ccccc2-c2nnn[nH]2)cc1 [IRBESARTAN]	Compound metabolized	Compound metabolized	Compound metabolized	Compound metabolized	Compound metabolized	Compound metabolized	Compound metabolized	Compound metabolized	Compound NOT metabolized	Compound metabolized	Compound metabolized	Compound metabolized	Compound metabolized	Compound metabolized	Compound metabolized	Compound metabolized	Compound metabolized	Compound metabolized	Compound metabolized	Compound metabolized
